Measurements as given in US8569292B2, “Cyclic inhibitors of 11β-hydroxysteroid dehydrogenase 1” (Vitae Pharmaceuticals, Inc., priority 2008, dated 2013).
Where two headings read alike, the source gives them in different places.

Assays:
[1] = biological target: T1, 11β-HSD1 (Homo sapiens, UniProt P28845)
[2] = biological target: T1, 11β-HSD1; assay: biochemical; settings: for inhibition at 0.1 µM: read-out: Average % inhibition at 100 nM
[3] = biological target: T2, CYP2C9 (Homo sapiens, UniProt P11712); assay: Biological Test Example 9: CYP2C9 inhibition (Invitrogen kit, fluorogenic OOMR); assay type: in vitro ADME
T2 construct: purchased Invitrogen 2859; host or cells: insect cells infected with baculovirus (microsomes)

[4] = biological target: T2, CYP2C9; assay: Biological Test Example 7: CYP2C9 inhibition (naproxen O-demethylation); assay type: in vitro ADME
[5] = biological target: CYP2C19 (Homo sapiens, UniProt P33261); assay: Biological Test Example 8: CYP2C19 inhibition (diazepam N-demethylation); assay type: in vitro ADME
[6] = biological target: T1, 11β-HSD1; assay: Biological Test Example 4: microsomal 11β-HSD1 in the presence of 50% human plasma
[7] = Biological Test Example 5: fraction unbound in human plasma (equilibrium dialysis); assay type: in vitro ADME
Experimental: Plasma protein binding of compounds was determined with Equilibrium Dialysis of spiked plasma against compound free dextrane buffer using a dialysis membrane with mass cutoff of 5000 Da. Compound concentrations in plasma and buffer after incubation were measured using HPLC/Mass spectrometry.

[8] = biological target: CYP3A4 (Homo sapiens, UniProt P08684); assay: Biological Test Example 6: CYP3A4 inhibition (erythromycin N-demethylation); assay type: in vitro ADME
[9] = Biological Test Example 1 IC50 (nM)
[10] = IC50 Range, Biological Test Example 1

Chain of CYP2C19 (P33261 whole entry): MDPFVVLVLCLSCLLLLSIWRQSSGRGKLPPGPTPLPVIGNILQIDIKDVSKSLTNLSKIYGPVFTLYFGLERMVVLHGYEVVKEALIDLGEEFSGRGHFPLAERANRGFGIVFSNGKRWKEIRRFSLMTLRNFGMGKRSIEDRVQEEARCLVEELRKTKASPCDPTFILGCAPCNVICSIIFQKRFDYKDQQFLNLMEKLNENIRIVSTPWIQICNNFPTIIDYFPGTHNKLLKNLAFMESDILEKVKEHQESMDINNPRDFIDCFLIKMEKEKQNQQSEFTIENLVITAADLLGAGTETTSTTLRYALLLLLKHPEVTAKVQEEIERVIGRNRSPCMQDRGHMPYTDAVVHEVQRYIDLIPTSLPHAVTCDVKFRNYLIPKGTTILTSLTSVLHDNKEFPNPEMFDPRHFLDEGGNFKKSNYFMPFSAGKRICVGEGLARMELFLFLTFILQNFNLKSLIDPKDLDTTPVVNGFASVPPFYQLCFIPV
T2 sequence (P11712 whole entry): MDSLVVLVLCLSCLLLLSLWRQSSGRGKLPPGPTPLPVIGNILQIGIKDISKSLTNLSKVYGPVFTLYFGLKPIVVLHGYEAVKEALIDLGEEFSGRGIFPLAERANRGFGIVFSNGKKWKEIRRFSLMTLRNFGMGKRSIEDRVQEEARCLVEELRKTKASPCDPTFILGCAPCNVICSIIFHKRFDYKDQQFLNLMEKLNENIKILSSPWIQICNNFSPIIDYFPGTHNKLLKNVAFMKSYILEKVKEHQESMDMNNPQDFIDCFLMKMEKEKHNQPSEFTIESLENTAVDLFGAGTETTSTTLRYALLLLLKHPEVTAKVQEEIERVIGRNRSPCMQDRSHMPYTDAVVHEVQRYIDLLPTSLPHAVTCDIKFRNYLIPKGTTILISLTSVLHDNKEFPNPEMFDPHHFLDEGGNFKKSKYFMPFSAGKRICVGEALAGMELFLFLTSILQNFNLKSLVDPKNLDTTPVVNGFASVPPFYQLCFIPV
T1 sequence (P28845 whole entry): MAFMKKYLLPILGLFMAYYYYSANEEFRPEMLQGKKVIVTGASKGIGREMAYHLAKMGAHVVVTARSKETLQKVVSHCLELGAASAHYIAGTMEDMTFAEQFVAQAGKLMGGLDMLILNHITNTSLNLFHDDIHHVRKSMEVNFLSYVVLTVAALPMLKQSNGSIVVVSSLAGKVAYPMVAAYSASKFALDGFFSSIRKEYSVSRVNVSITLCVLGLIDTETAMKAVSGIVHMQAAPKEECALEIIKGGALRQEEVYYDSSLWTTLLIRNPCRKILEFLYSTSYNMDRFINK
Chain of CYP3A4 (P08684 whole entry): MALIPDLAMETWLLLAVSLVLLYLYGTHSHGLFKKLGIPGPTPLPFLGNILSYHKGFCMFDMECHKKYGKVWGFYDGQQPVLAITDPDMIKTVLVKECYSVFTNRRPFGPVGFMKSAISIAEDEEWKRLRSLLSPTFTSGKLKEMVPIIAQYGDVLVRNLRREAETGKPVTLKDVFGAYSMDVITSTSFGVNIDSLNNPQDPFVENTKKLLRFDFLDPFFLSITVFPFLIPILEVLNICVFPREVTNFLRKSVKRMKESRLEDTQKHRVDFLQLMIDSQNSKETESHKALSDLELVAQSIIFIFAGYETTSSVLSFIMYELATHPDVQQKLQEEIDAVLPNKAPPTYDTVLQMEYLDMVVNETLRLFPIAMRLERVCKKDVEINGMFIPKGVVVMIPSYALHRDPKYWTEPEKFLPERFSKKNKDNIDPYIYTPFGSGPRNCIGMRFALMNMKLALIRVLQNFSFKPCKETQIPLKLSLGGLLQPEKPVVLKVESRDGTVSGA

## Cc1cc(-c2ccc([C@H](C)N3CCC(CCN4CCCS4(=O)=O)(c4ccccc4)OC3=O)cc2)ccn1 (stereo in doubt) [EXAMPLE 118, (R)-3-((S)-1-(4-(2-methylpyridin-4-yl)phenyl)ethyl)-6-phenyl-6-(2-(1,1-dioxoisothiazolidin-2-yl)ethyl)-1,3-oxazinan-2-one]
[1]; 100 nM
  Average % inhibition at 100 nM: 86.3%
[1]; read-out: Biological Test Example 1 IC50
  IC50: 0.0192 µM
[1]; read-out: IC50 Range, Biological Test Example 1
  IC50: < 0.1 µM

## C[C@@H](c1ccc(-c2ccc(C#N)cn2)cc1)N1CC[C@](CC(C)(C)O)(c2ccc(F)cc2)OC1=O [EXAMPLE 111, 6-(4-((S)-1-((S)-6-(4-fluorophenyl)-6-(2-hydroxy-2-methylpropyl)-2-oxo-1,3-oxazinan-3-yl)ethyl)phenyl)nicotinonitrile]
[2]; [9]
  IC50: 0.8 nM
[2]; [10]
  IC50: < 100 nM
[2]
  inhibition at 0.1 µM: 97.6%
[3]
  IC50: 4.7 µM
[4]
  IC50: > 50 µM
[5]
  IC50: > 50 µM
[6]
  IC50: 0.0072 µM
[7]
  Biological Test Example 5 (%): 2%
[8]
  IC50: 9.8 µM

## C[C@@H](c1ccc(-c2cnccn2)cc1)N1CC[C@](CC(C)(C)O)(c2ccccc2)OC1=O [EXAMPLE 130, (S)-6-(2-hydroxy-2-methylpropyl)-6-phenyl-3-((S)-1-(4-(pyrazin-2-yl)phenyl)ethyl)-1,3-oxazinan-2-one]
[2]; [9]
  IC50: 2.5 nM
[2]; [10]
  IC50: < 100 nM
[2]
  inhibition at 0.1 µM: 97.9%
[3]
  IC50: 9.7 µM
[4]
  IC50: > 50 µM
[5]
  IC50: 3 µM
[6]
  IC50: 0.0216 µM
[7]
  Biological Test Example 5 (%): 1.9%
[8]
  IC50: 11.8 µM

## Cc1ncc(-c2ccc([C@H](C)N3CC[C@](CC(C)(C)O)(c4ccccc4)OC3=O)cc2)cn1 [EXAMPLE 149, (S)-6-(2-hydroxy-2-methylpropyl)-3-((S)-1-(4-(2-methylpyrimidin-5-yl)phenyl)ethyl)-6-phenyl-1,3-oxazinan-2-one]
[3]
  IC50: 17.4 µM
[4]
  IC50: > 50 µM
[5]
  IC50: > 50 µM
[7]
  Biological Test Example 5 (%): 2.7%
[8]
  IC50: > 50 µM
